Test results from patent EP0321274A1, “Derivatives of thioformamide” (RHONE POULENC RORER LIMITED, priority 1987, dated 1989).

What was measured:
isolated rat aorta = test: Test A: activity against contractions induced by low K⁺ concentrations (20 mM K⁺) in the isolated rat aorta; assay type: cell-based; conditions: concentration reducing the 20 mM K⁺-induced contraction by 90%; rat thoracic aorta strips denuded of endothelium; read-out: Activity Test A EC₉₀
Description: The test methods used were adapted from those described by Winslow et al [Eur.J.Pharmacol., 131, 219-228 (1986)] and Karaki [J.Pharmacol. Methods, 18, 1-21 (1987)] for differentiating vaso-relaxant activity.
Test A : Activity against contractions induced by low K⁺ concentrations in the isolated rat aorta
Thoracic aorta was removed from rats and transverse strips, denuded of endothelium, were suspended in a bath containing Krebs solution. The tension was recorded and a contraction induced by addition of 20 mM K⁺ (potassium ion) to the bathing solution. The test compound was added to the bath as a solution in increasing cumulative concentration. The concentration in the bathing solution of the test compound which reduced the K⁺-induced contraction by 90% was determined and expressed in µM as the effective concentration (EC₉₀), given in Table I.

[1] = tested on: histamine-induced bronchospasm; test: Histamine-induced bronchospasm in the anaesthetised guinea pig (method of Dixon and Brodie), nebulised aerosol; assay type: in vivo; conditions: nebulised aerosol for 1 minute, control 80
Description: (§1) In in vivo tests in the anaesthetised guinea pig, performed according to the method of Dixon W.E. and Brodie T.G., J. Physiol 29, pp 97-173 (1903), Compound BD affected histamine-induced bronchospasm and blood pressure as follows:-
(§2) A nebulised aerosol generated from an aqueous solution having a given concentration was administered for 1 minute to the anaesthetised guinea pigs.

blood pressure = test: Blood pressure in the anaesthetised guinea pig (same experiment as bronchospasm test); assay type: in vivo; conditions: nebulised aerosol for 1 minute, control 42
Description: as §1, §2

In the case of CNC(=S)C1(c2cccnc2)CCCC/C1=N\OCc1ccccc1 (racemic) [Compound H, (±)-anti-N-methyl-2-benzyloxyimino-1-(3-pyridyl)cyclohexanecarbothioamide], the EC90 (isolated rat aorta) is reported as 10 nM.

With CNC(=S)C1(c2cccnc2)CCCCC1=O (racemic) [Compound A, (±)-N-methyl-2-oxo-1-(3-pyridyl)cyclohexanecarbothioamide] the EC90 (isolated rat aorta) was 800 nM.

In the case of CCNC(=S)C1(c2cccnc2)CCCCC1=O (racemic) [T, (±)-N-ethyl-2-oxo-1-(3-pyridyl)cyclohexanecarbothioamide], the EC90 (isolated rat aorta) is reported as 300 nM.

With CNC(=S)C1(c2ccc(Cl)nc2)CCCCC1=O (racemic) [Compound R, (±)-N-methyl-2-oxo-1-(6-chloropyrid-3-yl)cyclohexanecarbothioamide] the EC90 (isolated rat aorta) was 240 nM.

CNC(=S)C1(c2cnc3ccccc3c2)CCCCC1=O (racemic) [Compound B, (±)-N-methyl-2-oxo-1-(3-quinolinyl)cyclohexanecarbothioamide] showed an EC90 (isolated rat aorta) of 70 nM.

For CNC(=S)C1(c2cccnc2)CCCC/C1=N\OC (racemic) [Compound G, (±)-anti-N-methyl-2-methoxyimino-1-(3-pyridyl)cyclohexanecarbothioamide], the EC90 (isolated rat aorta) was 300 nM.

In the case of CNC(=S)[C@]1(c2cnc3ccccc3c2)CCCC/C1=N\N1CCC[C@H]1COC [Compound J, (2S)-anti-2-(methoxymethyl)-1-[2′-(3-quinolinyl)-2′-methylthiocarbamoylcyclohexylideneamino]pyrrolidine], the EC90 (isolated rat aorta) is reported as 300 nM.

Molecule “(±)-cis-N-methyl-2-hydroxy-1-(3-pyridyl)cyclohexanecarbothioamide” has an EC90 (isolated rat aorta) of 24000 nM.

For “(±)-trans-N-methyl-2-hydroxy-1-(3-pyridyl)cyclohexanecarbothioamide”, the EC90 (isolated rat aorta) was 7500 nM.

Work on CNC(=S)C1(c2cncc(Br)c2)CCCCC1=O (racemic) [Compound S, (±)-N-methyl-2-oxo-1-(5-bromopyrid-3-yl)cyclohexanecarbothioamide] yielded an EC90 (isolated rat aorta) of 400 nM.

In the case of CNC(=S)C1(c2cccnc2)CCC/C1=N\OCc1ccc(F)cc1 (racemic) [Compound BD, (±)-anti-N-methyl-2-(4-fluorobenzyloxyimino)-1-(3-pyridyl)cyclopentanecarbothioamide], the “% maximum bronchospasm” value ([1]; 100µg/ml aqueous solution) is reported as 76%, the “% maximum bronchospasm” value ([1]; 300µg/ml aqueous solution) is reported as 46% and the “% maximum bronchospasm” value ([1]; 1000µg/ml aqueous solution) is reported as 22%. For the same molecule, the B.P. (blood pressure; 100µg/ml aqueous solution) was 49 mmHg, the B.P. (blood pressure; 300µg/ml aqueous solution) was 43 mmHg and the B.P. (blood pressure; 1000µg/ml aqueous solution) was 40 mmHg.
